From US6211439A, “Herbicide resistance in plants” (MGI Pharma, Inc, priority 1995, dated 2001)

Experiments:
[1] = test system: XA17 seedlings homozygous for the herbicide resistance trait; experiment: Seedling assay, XA17 seedlings homozygous for the resistance trait; type: in vivo, maize
Protocol: Twenty control seeds and ten XA17 seeds were surface sterilized with 2.6% sodium hypochlorite for twenty minutes and then washed with sterile distilled water. The seed was imbibed overnight in sterile water containing a small quantity of the fungicide, captan (N-trichloromethylthio-4-cyclohexene-1,2-dicarboximide). The mature embryos were then excised from the seed and plated scutellum side down on solid MS media without 2,4-D. Ten control seeds were plated on media containing no 214 and ten were plated in the presence of 6×10^-8M 214 which had been incorporated into the medium after autoclaving but before gelling. All ten XA17 seeds were plated in the presence of 6×10^-8 M 214. Seedlings were evaluated seven days after plating.
XA17 seeds homozygous for the resistance trait were obtained as described in Section 6.4.6. […] Assays were conducted as described in Section 6.4.5.

[2] = test system: Callus tissue from line UV18; experiment: Callus growth inhibition, line UV18; type: cell-based, maize; details: for Callus Growth Fold Increase in Tolerance: line UV18 vs control tissue, based on herbicide amount giving 50% reduction in growth rate
Protocol: The UV18 cell line was first observed after 25 weeks of selection comprising 9 subculture intervals. The tissue in the selection procedure had been exposed to 0.1 mg per liter 214 for four subculture intervals followed by exposure to 0.3 mg per liter 214 for four subculture intervals. UV18 was identified during the ninth subculture as a rapidly growing sector of tissue with good morphology.
Callus tissue from line QJ22 was tested also with the compound 567. The numbers represent the fold increase in herbicide concentration that can be tolerated by each of the cell lines as compared to control tissue. The values were calculated based on the amount of herbicide that gave a 50% reduction in growth rate.

maize seedlings = experiment: Germination and seedling growth from excised mature maize embryos; type: in vivo; details: concentration in the media, shoot growth after seven days
Protocol: The herbicidal effects of 997 on maize seedlings were determined by evaluating germination and seedling growth from excised, mature maize embryos (Green, 1974, Crop Sci. 14: 54-58). Seeds were sterilized for 10 minutes in 0.5% hypochlorite and then imbibed for 24 hours in sterile, distilled water. Mature embryos were aseptically excised and plated on solid MS media […] containing various concentrations of 997 and no 2,4-D. Embryos were placed with their shoot axis away from the media. Shoot growth was quantitated after seven days.

[3] = test system: AHAS activity from line UV18; experiment: AHAS activity assay, line UV18; type: biochemical, maize; details: 3×10^-6 to 3×10^-4 M 997
Protocol: (§1) Assays were conducted as a modification of the procedure of Smith et al. (1979, Molec. Gen. Genet. 169: 299-314). Plant cell culture material was ground with sand in a cold mortar and pestle in an equal quantity (w/v) of cell disruption media containing 0.05 M potassium phosphate (pH 7.0), 0.1 mM MgSO4, and 0.5 mM dithiothreitol. The preparation was centrifuged at 11,000×g for 20 minutes and the supernatant assayed for AHAS activity. Assays were conducted in 1 ml volumes containing 0.05 M potassium phosphate (pH 8.0), 40 mM pyruvate, 5 mM MgCl2, 0.1 mM thiamine pyrophosphate, 0.2 ml cell extract, and various concentrations of the herbicide of interest. The reaction mixtures were incubated at 30° C. for 75 minutes and the reaction terminated with the addition of 0.1 ml of 50% (v/v) H2 SO4. Following further incubation at 40° C. for 20 minutes, the acetoin formed from acetolactate by acidification was quantitated using the method of Westerfield (1945, J. Biol. Chem. 161: 495). To 0.2 ml of reaction mixture, 0.8 ml of water, 0.5 ml of 0.5% (w/v) creatine, and 0.5 ml of 5% (w/v) naphthol in 10% (w/v) NaOH was added. After mixing, solutions were incubated at room temperature for one hour. The development of pink color was quantitated by measuring light absorbance at 530 nm. […]

Corn Suspension Cultures = experiment: Free amino acid levels in suspension cultures of the embryogenic cell line used for selection; type: cell-based, maize; details: 1 × 10^-5 M 997
Protocol: Suspension culture cells were treated for 3.5 hours or 48 hours with 1×10^-5 M 997. Cells were removed from suspension by filtration and 1 gram fresh weight quantities were ground with sand with a mortar and pestle in 1 ml 5% TCA. Four ml of 5% TCA were added and the extract centrifuged at 10,000×g for 10 minutes. The pellet was reextracted and the supernatants combined and subjected to cation exchange chromatography. The samples were applied to Bond Elut SCX columns (Analytichem International Inc., Harbor City, Calif.) which had been equilibrated with 5% TCA. Following sample application, the columns were washed with 5 ml distilled, deionized water, and the amino acids were eluted with 2 ml aliquots of 5% v/v triethylamine. The aliquots were combined (6 ml), lyophilized, and subjected to amino acid analysis with a Kontron Liquemat III amino acid analyzer (Hesber, Middlesex TW5 OQU, England).
The embryogenic cell line used in the selection for herbicide resistant cells (see Section 6.2.1) was different from the cell line used in the characterization of the site of action of 997 described in Section 6.1. Consequently, the effects of 997 on pool sizes of free amino acids in the cell line used in the selection procedure was also studied. The protocol described in Section 6.1.4 was followed for these studies.

[4] = test system: AHAS activity from line QJ22; experiment: AHAS activity assay, line QJ22; type: biochemical, maize; details: 3×10^-6 to 3×10^-4 M 997
Protocol: as §1

[5] = average ± standard deviation of three replicates

## CC(C)C1(C)NC(c2nc3ccccc3cc2C(=O)O)=NC1=O (stereo not drawn) [compound 214, 2-(5-isopropyl-5-methyl-4-oxo-2-imidazolin-2-yl)3-quinolinecarboxylic acid]
[1]; 3×10^-6 M, seedlings homozygous for the resistance trait
  shoot growth inhibition at the highest concentration tested: no inhibition
[1]; vs control seedlings
  resistance of XA17 homozygous seedlings: at least 100 fold
[2]; 0.3 mg per liter 214, vs control tissue in the absence of herbicide
  growth of UV18 tissue in presence of herbicide: grew as rapidly
[2]
  Callus Growth Fold Increase in Tolerance: 100 fold

## CC(C)C1(C)NC(c2ncccc2C(=O)O)=NC1=O (stereo not drawn) [compound 997, 2-(5-isopropyl-5-methyl-4-oxo-2-imidazolin-2-yl)nicotinic acid]
Maize seedlings
  herbicide concentration giving 50% growth inhibition: 1 to 3×10^-8 M
[3]
  tolerance of AHAS activity vs AHAS from control cultures: more tolerant
[2]
  Callus Growth Fold Increase in Tolerance: 100 fold
Corn Suspension Cultures
  ala B/A (treated/control): 2.6
  arg B/A (treated/control): 1.4
  asp B/A (treated/control): 2.2
  glu B/A (treated/control): 3.8
  gly B/A (treated/control): 13.0
  ile B/A (treated/control): 2.4
  leu B/A (treated/control): 0.52
  lys B/A (treated/control): 1.8
  met B/A (treated/control): 3.8
  phe B/A (treated/control): 6.6
  ser B/A (treated/control): 8.7
  thr B/A (treated/control): 6.4
  tyr B/A (treated/control): 2.1
  val B/A (treated/control): 0.27
Corn Suspension Cultures; [5]
  Free ala level (B): 5750 ± 1100 n mol per g fresh wt tissue
  Free arg level (B): 70 ± 60 n mol per g fresh wt tissue
  Free asp level (B): 5700 ± 650 n mol per g fresh wt tissue
  Free glu level (B): 8550 ± 210 n mol per g fresh wt tissue
  Free gly level (B): 3130 ± 230 n mol per g fresh wt tissue
  Free ile level (B): 220 ± 10 n mol per g fresh wt tissue
  Free leu level (B): 120 ± 10 n mol per g fresh wt tissue
  Free lys level (B): 230 ± 140 n mol per g fresh wt tissue
  Free met level (B): 190 ± 80 n mol per g fresh wt tissue
  Free phe level (B): 790 ± 90 n mol per g fresh wt tissue
  Free ser level (B): 20000 ± 2000 n mol per g fresh wt tissue
  Free thr level (B): 2960 ± 270 n mol per g fresh wt tissue
  Free tyr level (B): 410 ± 80 n mol per g fresh wt tissue
  Free val level (B): 140 ± 10 n mol per g fresh wt tissue
[4]
  tolerance of AHAS activity vs AHAS from control cultures: more tolerant
